Tests used:
Type in all cases: in vivo
db/db mice [1] = test: Antidiabetic activity with Exenatide or Glimepiride in db/db mice (studies VII and VIII): non-fasting serum glucose; conditions: Compound Ia 0.1 mg/kg
Excerpt: The in-vivo efficacy for antidiabetic activity was done in male and female db/db mice of 12-16 weeks of age. Generally obese and diabetic animals are insulin resistant and have abnormalities in glucose and lipid metabolism. The development of diabetes and beta cell dysfunction in these animal models closely parallels the pathophysiology of the disease condition in humans. […] They progressively develop into insulinopenia with age, a feature commonly observed in last stage of type-2 diabetes, when blood sugar levels are insufficiently controlled. Therefore, this genetic model proves to be suitable for predicting the likely therapeutic benefit of novel euglycemic agents in human type-2 diabetes.
(§1) In this experiment, 49 db/db mice of 12-16 week were divided into 7 groups and as per their day 0 serum glucose levels. […] Detail treatments and routes of administrations were mentioned in Table no. 27. The treatment was given once daily for 7 days.
(§2) The blood was collected by retro-orbital sinus puncture method under light ether anesthesia on day 0 (pretreatment) and on day 6 (one hour after dose administration) for non-fasting glucose analysis and oral glucose tolerance test (OGTT) was performed on day 7 of the treatment in fasting condition. After blood collection serum was separated and analyzed glucose analysis using Spectra max and commercial diagnostic kits. The OGTT procedure followed is as given below—
(§3) The calculation for antidiabetic activity i.e. effect on serum glucose and improvement in glucose Area Under Curve (AUC) was calculated using the excel sheet and Graph Pad Prism software. The day-0 and day-6 glucose values of vehicle control and treatment were considered for calculating the effect on serum glucose. The effect on glucose AUC was calculated using the OGTT glucose levels at different time points and the improvement in glucose AUC were the reduction in glucose AUC after the treatment during OGTT.

db/db mice [2] = test: Oral glucose tolerance test in db/db mice (studies VII and VIII); conditions: Compound Ia 0.1 mg/kg, Glimepiride 2 mg/kg p.o.; for % improvement in AUC glucose vs control: Table 31 and text, OGTT after 7 days of treatment
Excerpt: as §1, §2
Oral Glucose Tolerance Test (OGTT): One day before OGTT all animals were kept on overnight fasting and on the day of OGTT, day 7 of the treatment each animal was dosed with a single dose of vehicle/test compounds administered orally and 60-min post dosing blood was collected (0 min) and glucose load (2 gm/kg/10 ml) administered per orally. Blood was then collected at time points corresponding to 30, 60 and 120 min after glucose load administration. Serum was separated and analyzed for glucose using Spectra max and commercial diagnostic kits.
as §3

db/db mice [3] = test: Oral glucose tolerance test in db/db mice (studies I and II); conditions: Table 10; OGTT day 14, fasting, glucose load 2 gm/kg; Compound (Ia) 0.1 mg/kg, Sitagliptin 3 mg/kg p.o.
Excerpt: 8. […] 8. The treatment was given oral gavages once daily for 14 days.
The OGTT procedure followed is as given below—

db/db mice [4] = test: Antidiabetic activity in db/db mice (studies I and II): non-fasting serum glucose; conditions: Compound (Ia) 0.1 mg/kg
Excerpt: The in-vivo efficacy for antidiabetic activity was done for (I) and (II) individually with db/db mice of 13-14 weeks of age.
8. […] 8. The treatment was given oral gavages once daily for 14 days. […]

SMILES	Serum Glucose (mg/dl) Day 0 (db/db mice [1]; Table 30, Day 0 (pretreatment), male and female db/db mice, Glimepiride 2 mg/kg p.o. once daily)	Serum Glucose (mg/dl) Day 6 (db/db mice [1]; Table 30, Day 6, one hour after dose, non-fasting, Glimepiride 2 mg/kg p.o. once daily)	% Change Day 6 vs Day 0 (db/db mice [1]; Table 30, serum glucose, Glimepiride 2 mg/kg p.o.)	% Change Vs control (db/db mice [1]; Table 30 and text, serum glucose day 6 vs vehicle control, Glimepiride 2 mg/kg p.o.)	AUC Glucose (db/db mice [2]; Table 31, OGTT day 7, fasting, glucose load 2 gm/kg)	% improvement in AUC glucose vs control (db/db mice [2])	% improvement in AUC glucose vs control (db/db mice [2]; listed as glimepiride)	AUC Glucose (db/db mice [3])	Serum Glucose (mg/dl) Day 0 (db/db mice [4]; Table 9, Day 0 (pretreatment), female db/db mice, Sitagliptin 3 mg/kg p.o. once daily)	Serum Glucose (mg/dl) Day 12 (db/db mice [4]; Table 9, Day 12, non-fasting, female db/db mice, Sitagliptin 3 mg/kg p.o. once daily)	% Change Vs control (db/db mice [4]; Table 9, serum glucose day 12 vs vehicle control, Sitagliptin 3 mg/kg p.o. once daily)	% Change Day 12 vs Day 0 (db/db mice [4]; Table 9, serum glucose, Sitagliptin 3 mg/kg p.o. once daily)	reduction in serum glucose (db/db mice [4]; female db/db mice, Sitagliptin 3 mg/kg, Metformin 150 mg/kg)
CCC1=C(C)CN(C(=O)NCCc2ccc(S(=O)(=O)NC(=O)N[C@H]3CC[C@H](C)CC3)cc2)C1=O [Glimepiride, reference compound]	402.0 mg/dL	506.7 mg/dL	26.9%	10.1%	62529.0 mg·min/dL	−2.6%	does not any improvement						
N[C@@H](CC(=O)N1CCn2c(nnc2C(F)(F)F)C1)Cc1cc(F)c(F)cc1F [Sitagliptin, reference compound]								64655.9 ± 6300.6 mg·min/dL	407.9 ± 34.5 mg/dL	485.3 ± 50.5 mg/dL	18.5 ± 5.0%	18.3 ± 5.0%	does not show any reduction rather it has shown slight increase in serum glucose
